Data set [1] deals with Mycobacterium tuberculosis. Description: Antitubercular activity against Mycobacterium tuberculosis H37Ra assessed as reduction in microbial growth incubated for 5 days by resazurin microtiter assay. The format is functional. To be noted: 120 h, time 5 day. For orientation: The colour change of resazurin is a common sign of viable cells or microbes.
The test system of data set [2] is Mycobacterium tuberculosis. In words: Antitubercular activity against Mycobacterium tuberculosis H37Ra assessed as reduction in microbial growth at 6 ug/ml incubated for 5 days by resazurin microtiter assay relative to control. Type of data set: functional. To be noted: 120 h, time 5 day.
For data set [3], the system named is Mycobacterium tuberculosis. Description: Antitubercular activity against Mycobacterium tuberculosis H37Rv assessed as reduction in microbial growth by BACTEC 460-radiometric assay. The format is functional.
Data set [4] can be described thus: Selectivity index, ratio of CC50 for cytotoxicity against human THP-1 cells to MIC90 for antitubercular activity against Mycobacterium tuberculosis H37Ra. Type of data set: toxicity, cell-based. To be noted: read-out: Selectivity Index.
Data set [5] can be described thus: Cytotoxicity against human THP-1 cells assessed as reduction in cell viability incubated for 48 hrs by resazurin assay. Type of data set: toxicity, cell-based.
In data set [6] the test system is Mycobacterium tuberculosis. Description: Antitubercular activity against Mycobacterium tuberculosis H37Ra assessed as reduction in microbial growth at 2 ug/ml incubated for 5 days by resazurin microtiter assay relative to control. Type of data set: functional. The conditions noted are these: 120 h, time 5 day.
The test system of data set [7] is Mycobacterium tuberculosis. Description: Antitubercular activity against Mycobacterium tuberculosis H37Rv assessed as reduction in microbial growth by microplate alamar blue assay. Type of data set: functional.
Data set [8] is described as follows: Apparent volume of distribution in Sprague-Dawley rat at 50 mg/kg, po measured for 5 to 1440 mins by LC-MS/MS analysis. The format is ADME, organism-based. The conditions noted are these: in vivo, time 5-1440 min.
Data set [9] is described as follows: Stability of compound in simulated intestinal fluid assessed as remaining compound at pH 6.8 measured upto 120 mins by UPLC analysis. To be noted: read-out: Stability. Type of data set: ADME.
A short description of data set [10]: Stability of compound in simulated physiological fluid assessed as remaining compound at pH 7.4 measured upto 120 mins by UPLC analysis. Type of data set: ADME. The conditions noted are these: read-out: Stability.
Data set [11] in a line: Stability of compound in rat plasma assessed as remaining compound measured upto 120 mins by UPLC analysis. Type of data set: ADME, cell-free. To be noted: read-out: Stability.
Data set [12] can be described thus: MRT in Sprague-Dawley rat at 50 mg/kg, po measured for 5 to 1440 mins by LC-MS/MS analysis. The format is ADME, organism-based. The conditions noted are these: in vivo, time 5-1440 min.
Data set [13] in a line: Tmax in Sprague-Dawley rat at 50 mg/kg, po measured for 5 to 1440 mins by LC-MS/MS analysis. Type of data set: ADME, organism-based. The conditions noted are these: in vivo, time 5-1440 min.
Data set [14] can be described thus: Half life in Sprague-Dawley rat at 50 mg/kg, po measured for 5 to 1440 mins by LC-MS/MS analysis. Type of data set: ADME, organism-based. To be noted: in vivo, time 5-1440 min.
The nature of data set [15]: Cmax in Sprague-Dawley rat at 50 mg/kg, po measured for 5 to 1440 mins by LC-MS/MS analysis. The format is ADME, organism-based. To be noted: in vivo, time 5-1440 min.
Data set [16] can be described thus: Stability of compound in simulated gastric fluid assessed as remaining compound at pH 1.2 measured upto 120 mins by UPLC analysis. Type of data set: ADME. To be noted: read-out: Stability.

≈ marks a conversion by molar mass, not a printed value.

By MIC90 is commonly meant an inhibitory concentration at the 90% level, which refers to growth in some studies and to a panel of isolates in others. Usually inhibition stands for the percentage by which the read-out fell short of the control. The term MIC denotes the smallest concentration in the dilution series that meets the test's criterion for growth inhibition. One may read the CC50 as the concentration at which the toxic effect on the cells reaches its halfway point. In general, MRT refers to a mean duration of stay, worked out from the concentration-time curve. As usually defined, the Tmax is the time from dosing to the highest level. One may read the half-life as how long it takes for the measured level to halve. High values mean slow loss, low ones fast loss. A word on the Cmax: it is the peak of the concentration-time curve.

`CC1=C(C(=O)NCc2cn(Cc3ccccc3)nn2)C(c2ccccc2)C2=C(CC(C)(C)CC2=O)N1` (stereo not given): in data set [1], the MIC90 was > 25 µg/mL.

For the molecule `CC1=C(C(=O)NCc2cn(Cc3ccccc3)nn2)C(c2ccc(Cl)cc2)C2=C(CC(C)(C)CC2=O)N1` (stereo not given), the MIC90 in [1] was > 25 µg/mL.

Take `CC1=C(C(=O)NCc2cn(-c3ccc(C)cc3)nn2)C(c2scnc2C)C2=C(CC(C)(C)CC2=O)N1` (stereo not given): the MIC90 in data set [1] was > 25 µg/mL.

For `CC1=C(C(=O)NCc2cn(-c3ccccc3)nn2)C(c2cccs2)C2=C(CC(C)(C)CC2=O)N1` (stereo not given), in data set [1], the MIC90 is > 25 µg/mL.

On to `CC1=C(C(=O)NCc2cn(-c3ccc(F)cc3)nn2)C(c2ccc(Cl)cc2)C2=C(CC(C)(C)CC2=O)N1` (stereo not given), for which the MIC90 in data set [1] worked out at 25.9 µg/mL.

As for `CC1=C(C(=O)NCc2cn(-c3ccccc3)nn2)C(c2scnc2C)C2=C(CC(C)(C)CC2=O)N1` (stereo not given), the MIC90 in [1] was > 25 µg/mL.

Regarding `CC1=C(C(=O)NCc2cn(Cc3ccccc3)nn2)C(c2scnc2C)C2=C(CC(C)(C)CC2=O)N1` (stereo not given), the MIC90 in [1] was > 25 µg/mL.

On to `CC1=C(C(=O)NCc2cn(-c3ccc(F)cc3)nn2)C(c2cccs2)C2=C(CC(C)(C)CC2=O)N1` (stereo not given), for which, in data set [1], the MIC90 was > 25 µg/mL.

For the molecule `CC1=C(C(=O)NCc2cn(-c3ccc(C)cc3)nn2)C(c2ccc(F)cc2)C2=C(CCCC2=O)N1` (stereo not given), the MIC90 in data set [1] was 11.8 µg/mL.

Regarding `CC1=C(C(=O)NCc2cn(-c3ccc(Cl)cc3)nn2)C(c2ccccc2)C2=C(CC(C)(C)CC2=O)N1` (stereo not given), in data set [1], the MIC90 stood at 25.1 µg/mL.

As for `CN[C@@H]1[C@H](O[C@H]2[C@H](O[C@H]3[C@H](O)[C@@H](O)[C@H](N=C(N)N)[C@@H](O)[C@@H]3N=C(N)N)O[C@@H](C)[C@]2(O)C=O)O[C@@H](CO)[C@H](O)[C@H]1O` [STREPTOMYCIN], the inhibition at 6 µg/mL in data set [2] was > 99%.

Take `COC(=O)C1=C(C)NC(C)=C(C2=NN(C(C)=O)C(c3ccccc3)C2)C1c1cccc([N+](=O)[O-])c1` (stereo not given): the MIC in [3] was > 12.5 µg/mL.

On to `COc1ccc(-n2cc(CNC(=O)C3=C(C)NC4=C(C(=O)CC(C)(C)C4)C3c3ccc(F)cc3)nn2)cc1` (stereo not given), for which, in data set [1], the MIC90 worked out at 6.44 µg/mL. The selectivity ratio in [4] is > 16. In data set [5], the CC50 at 48 h was > 103 µg/mL.

As to `COc1ccc(-n2cc(CNC(=O)C3=C(C)NC4=C(C(=O)CC(C)(C)C4)C3c3ccccn3)nn2)cc1` (stereo not given), in [1], the MIC90 was > 25 µg/mL.

For `COc1ccc(C2C(C(=O)NCc3cn(-c4ccccc4)nn3)=C(C)NC3=C2C(=O)CC(C)(C)C3)cc1` (stereo not given), in data set [1], the MIC90 is > 25 µg/mL.

With `COc1ccc(-n2cc(CNC(=O)C3=C(C)NC4=C(C(=O)CC(C)(C)C4)C3c3ccc(Cl)cc3)nn2)cc1` (stereo not given), in data set [1], the MIC90 stood at 6.64 µg/mL. Besides, the selectivity ratio in data set [4] was determined as 9.73. In data set [5], the CC50 at 48 h stood at 64.6 µg/mL (≈ 121 µM).

As for `CC1=C(C(=O)NCc2cn(-c3ccc(C)cc3)nn2)C(c2ccc(Cl)cc2)C2=C(CCCC2=O)N1` (stereo not given), the MIC90 in data set [1] was > 25 µg/mL.

Consider `CC1=C(C(=O)NCc2cn(-c3ccccc3C(F)(F)F)nn2)C(c2ccc(Cl)cc2)C2=C(CC(C)(C)CC2=O)N1` (stereo not given), for which the MIC90 in data set [1] is > 25 µg/mL.

As for `CC1=C(C(=O)NCc2cn(-c3ccccc3)nn2)C(c2ccc(Cl)cc2)C2=C(CC(C)(C)CC2=O)N1` (stereo not given), in data set [1], the MIC90 came to 6.26 µg/mL. Further, the selectivity ratio in data set [4] amounted to 10.6. In [5], the CC50 at 48 h was determined as 66.4 µg/mL (≈ 132 µM).

For the molecule `CC1=C(C(=O)NCc2cn(-c3ccc(C)cc3)nn2)C(c2ccc(Cl)cc2)C2=C(CC(C)(C)CC2=O)N1` (stereo not given), the MIC90 in [1] turned out to be 6.44 µg/mL. Also, the selectivity ratio in data set [4] amounted to 6.88. Moreover, the CC50 at 48 h in data set [5] turned out to be 44.3 µg/mL (≈ 85.9 µM).

As to `CC1=C(C(=O)NCc2cn(-c3ccccc3)nn2)C(c2ccccc2)C2=C(CC(C)(C)CC2=O)N1` (stereo not given), the MIC90 in data set [1] is > 25 µg/mL.

As for `COc1ccc(-n2cc(CNC(=O)C3=C(C)NC4=C(C(=O)CC(C)(C)C4)C3c3ccccc3Cl)nn2)cc1` (stereo not given), the MIC90 in data set [1] stood at 13.3 µg/mL.

`COc1ccc(C2C(C(=O)NCc3cn(-c4cccc(C(F)(F)F)c4)nn3)=C(C)NC3=C2C(=O)CC(C)(C)C3)cc1` (stereo not given): in data set [1], the MIC90 is > 25 µg/mL.

Consider `CO[C@H]1/C=C/O[C@@]2(C)Oc3c(C)c(O)c4c(O)c(c(/C=N/N5CCN(C)CC5)c(O)c4c3C2=O)NC(=O)/C(C)=C\C=C\[C@H](C)[C@H](O)[C@@H](C)[C@@H](O)[C@@H](C)[C@H](OC(C)=O)[C@@H]1C` [RIFAMPIN], for which the inhibition at 2 µg/mL in [6] was > 99%.

Take `CC1=C(C(=O)NCc2cn(-c3ccc(C(C)C)cc3)nn2)C(c2ccc(Cl)cc2)C2=C(CC(C)(C)CC2=O)N1` (stereo not given): in data set [1], the MIC90 is 27.2 µg/mL.

In the case of `COc1cc(C2C(C(=O)NCc3cn(-c4ccc(F)cc4)nn3)=C(C)NC3=C2C(=O)CC(C)(C)C3)cc(OC)c1OC` (stereo not given), in data set [1], the MIC90 is > 25 µg/mL.

As to `COc1cc(C2C(C(=O)NCc3cn(-c4ccccc4)nn3)=C(C)NC3=C2C(=O)CC(C)(C)C3)cc(OC)c1OC` (stereo not given), the MIC90 in data set [1] is > 25 µg/mL.

Consider `CC1=C(C(=O)NCc2cn(-c3ccc(Cl)cc3)nn2)C(c2scnc2C)C2=C(CC(C)(C)CC2=O)N1` (stereo not given), for which the MIC90 in [1] is > 25 µg/mL.

Regarding `COc1ccc(-n2cc(CNC(=O)C3=C(C)NC4=C(C(=O)CC(C)(C)C4)C3c3cccc(Cl)c3)nn2)cc1` (stereo not given), the MIC90 in data set [1] is > 25 µg/mL.

As for `CCCCc1nc(Cl)c(C2C(C(=O)Nc3ccc(F)cc3)=C(C)NC(C)=C2C(=O)Nc2ccc(F)cc2)n1Cc1ccccc1`, the MIC in data set [7] is 0.02 µg/mL.

Turning to `COc1cc(-n2cc(CNC(=O)C3=C(C)NC4=C(C(=O)CC(C)(C)C4)C3c3ccc(Cl)cc3)nn2)cc(OC)c1OC` (stereo not given), in [1], the MIC90 is > 25 µg/mL.

Take `CC1=C(C(=O)NCc2cn(-c3ccccc3)nn2)C(c2ccc(F)cc2)C2=C(CC(C)(C)CC2=O)N1` (stereo not given): in [1], the MIC90 was found to be 12.1 µg/mL.

Turning to `CC1=C(C(=O)NCc2cn(-c3ccc(C)cc3)nn2)C(c2ccccc2)C2=C(CC(C)(C)CC2=O)N1` (stereo not given), the MIC90 in [1] was determined as 24.1 µg/mL.

Regarding `COc1ccc(-n2cc(CNC(=O)C3=C(C)NC4=C(C(=O)CC(C)(C)C4)C3c3cccs3)nn2)cc1` (stereo not given), in data set [1], the MIC90 is > 25 µg/mL.

With `CC1=C(C(=O)NCc2cn(-c3ccc(C)cc3)nn2)C(c2ccc(F)cc2)C2=C(CC(C)(C)CC2=O)N1` (stereo not given), in data set [8], the “Vd(app)” value amounted to 0.02778 L/kg. Moreover, the MIC90 in [1] came to 6.24 µg/mL. Moreover, the remaining at 2 h in [9], in [10], in data set [11] and in [16] was ≥ 70% each time. For the same molecule, in data set [4], the selectivity ratio is > 16. In addition, the MRT in data set [12] stood at 6.69 h. In addition, in [13], the Tmax was found to be 1.33 h. Also, in data set [5], the CC50 at 48 h is > 99.8 µg/mL. The half-life in data set [14] was 4.16 h. Besides, the Cmax in [15] came to 1400 ng/mL.

Consider `COc1cc(C2C(C(=O)NCc3cn(-c4cccc(C(F)(F)F)c4)nn3)=C(C)NC3=C2C(=O)CC(C)(C)C3)cc(OC)c1OC` (stereo not given), for which the MIC90 in [1] is > 25 µg/mL.

The record behind these values is ChEMBL document CHEMBL5576152, “Antitubercular evaluation of dihydropyridine-triazole conjugates: design, synthesis, in vitro screening, SAR and in silico ADME predictions” (RSC Med Chem, 2024).
